Legend:
Assay type in all cases: in vivo
Echinochloa crus-galli = assay: Field trial post-emergence in maize: ECHCG; details: for herbicidal effect (h.e.): g a.c./ha: PYR 300, MES 100, PYR + MES 300 + 90
Method: (§1) Herbicidal activity of herbicide compositions according to the first aspect of the present invention with regard to different types of unwanted vegetation was determined during trials performed on test fields (field trials). Individual compositions comprising pyridate and individual compositions comprising a defined 4-HPPD inhibitor are compared with a herbicide composition according to the invention comprising both pyridate and a defined 4-HPPD inhibitor. The expected activity of the combination of the active compounds pyridate and a defined 4-HPPD inhibitor is calculated according to above mentioned calculation method by Colby, in order to evaluate a synergistic effect between pyridate and a defined 4-HPPD inhibitor.
(§2) Herbicidal activity was determined by applying herbicide compositions on emerged unwanted vegetation on fields where maize was cultivated. Pyridate and a defined 4-HPPD inhibitor were applied as a tank mixture by mixing these active compounds prior to use in a spray tank. The corresponding mixture was in the form of a spray liquor. Besides, spray liquors of individual compositions comprising pyridate and of individual compositions comprising a defined 4-HPPD inhibitor were used. Test plants of unwanted vegetation with a growth stage corresponding to BBCH 10-18 (according to the extended BBCH-scale) were sprayed with the active compound preparations such that particular desired amounts of active compounds are applied per unit area. Spray liquor was diluted with water to arrive at an application volume of 50 to 450 L/ha. At a specified number of days after application (DAA), the degree of damage to the unwanted vegetation is rated in % of plants of unwanted vegetation that were killed, which was assessed by visually controlling the plants.

Stellaria media = assay: Field trial post-emergence in maize: STEME
Method: as §1, §2

Veronica persica [1] = assay: Field trial post-emergence in maize: VERPE; details: for herbicidal effect (h.e.): g a.c./ha: PYR 300, MES 100, PYR + MES 300 + 90
Method: as §1, §2

Xanthium spinosum = assay: Field trial post-emergence in maize: XANSP; details: 7-14 DAA; # = 3; g a.c./ha: PYR 300, MES 100, PYR + MES 300 + 90
Method: as §1
(§3) Herbicidal activity was determined by applying herbicide compositions on emerged unwanted vegetation on fields where maize was cultivated. Pyridate and a defined 4-HPPD inhibitor were applied as a tank mixture by mixing these active compounds prior to use in a spray tank. The corresponding mixture was in the form of a spray liquor. […] At a specified number of days after application (DAA), the degree of damage to the unwanted vegetation is rated in % of plants of unwanted vegetation that were killed, which was assessed by visually controlling the plants.

[2] = test system: Brassica rapa Canola cultivars; assay: Field trial post-emergence in maize: BRSRC; details: 13-14 DAA, # = 1
Method: as §1, §2

Chenopodium album = assay: Field trial post-emergence in maize: CHEAL; details: 13-14 DAA, # = 1
Method: as §1, §2

Sinapis arvensis = assay: Field trial post-emergence in maize: SINAR; details: 13-14 DAA; # = 1; g a.c./ha: PYR 450, TOP 12.4, PYR + TOP 450 + 12.4
Method: as §1, §3

Bassia scoparia = assay: Field trial post-emergence in maize: KCHSC; details: 13-14 DAA; # = 2; g a.c./ha: PYR 450, TEM 38, PYR + TEM 450 + 38
Method: as §1, §3

Veronica persica [3] = assay: Examples 6-8 herbicidal effect: VERPE; details: 7 DAA
Matricaria chamomilla [4] = assay: Examples 6-8 herbicidal effect: MATCH; details: 7 DAA
Lamium amplexicaule = assay: Example 6 herbicidal effect: LAMAM; details: 7 DAA
Setaria verticillata = assay: Examples 6-8 herbicidal effect: SETVE; details: 7 DAA
Erodium ciconium = assay: Field trial post-emergence in maize: EROCC
Method: as §1, §2
(§4) Example 1 concerns a herbicide composition comprising a combination of pyridate and mesotrione, which was applied post-emergence on unwanted vegetation on a field where maize was cultivated, according to the test conditions mentioned above.

Matricaria chamomilla [5] = assay: Field trial post-emergence in maize: MATCH
Method: as §1, §2, §4

Polygonum aviculare = assay: Field trial post-emergence in maize: POLAV
Method: as §1, §2, §4

Setaria viridis = assay: Field trial post-emergence in maize: SETVI
Method: as §1, §2, §4

[6] = g a.c./ha: PYR 450, TOP 12.4, PYR + TOP 450 + 12.4
[7] = g a.c./ha: PYR 10, TEM 22, PYR + TEM 10 + 100
[8] = g a.c./ha: PYR 300, PYR + MES 300 + 80
[9] = g a.c./ha: PYR 300, SCT 300, PYR + SCT 300 + 300
[10] = g a.c./ha: PYR 300, TEM 100, PYR + TEM 300 + 100
[11] = g a.c./ha: PYR 450, SCT 450, PYR + SCT 300 + 450
[12] = g a.c./ha: PYR 600, PYR + SCT 600 + 300
[13] = g a.c./ha: PYR 900, TEM 44, PYR + TEM 900 + 44

Compound: CCCCCCCCSC(=O)Oc1cc(Cl)nnc1-c1ccccc1 [PYR, (6-chloro-3-phenylpyridazin-4-yl) octylsulfanylformate]
- herbicidal effect (h.e.) (Echinochloa crus-galli; 7-14 DAA, # = 9): 20%
- herbicidal effect (h.e.) (Echinochloa crus-galli; 18-28 DAA, # = 14): 23%
- herbicidal effect (h.e.) (Echinochloa crus-galli; 31-48 DAA, # = 13): 23%
- PYR h.e. (Echinochloa crus-galli; ECHCG 14-20 DAA 300 g a.c./ha): 10%
- PYR h.e. (Echinochloa crus-galli; ECHCG 14-20 DAA 600 g a.c./ha): 23%
- PYR h.e. (Echinochloa crus-galli; ECHCG 14-20 DAA 900 g a.c./ha): 31%
- PYR h.e. (Echinochloa crus-galli; ECHCG 24-31 DAA 300 g a.c./ha): 0%
- PYR h.e. (Echinochloa crus-galli; ECHCG 24-31 DAA 600 g a.c./ha): 3%
- PYR h.e. (Echinochloa crus-galli; ECHCG 24-31 DAA 900 g a.c./ha): 20%
- herbicidal effect (h.e.) (Stellaria media; 18-28 DAA, # = 4, g a.c./ha: PYR 300, MES 100, PYR + MES 300 + 90): 35%
- PYR h.e. (Stellaria media; STEME 14-20 DAA 300 g a.c./ha): 18%
- PYR h.e. (Stellaria media; STEME 14-20 DAA 600 g a.c./ha): 42%
- PYR h.e. (Stellaria media; STEME 14-20 DAA 900 g a.c./ha): 55%
- PYR h.e. (Stellaria media; STEME 24-31 DAA 300 g a.c./ha): 16%
- PYR h.e. (Stellaria media; STEME 24-31 DAA 600 g a.c./ha): 30%
- PYR h.e. (Stellaria media; STEME 24-31 DAA 900 g a.c./ha): 50%
- herbicidal effect (h.e.) (Veronica persica [1]; 7-14 DAA, # = 4): 58%
- herbicidal effect (h.e.) (Veronica persica [1]; 31-48 DAA, # = 5): 44%
- PYR h.e. (Veronica persica [1]; VERPE 14-20 DAA 300 g a.c./ha): 0%
- PYR h.e. (Veronica persica [1]; VERPE 14-20 DAA 600 g a.c./ha): 20%
- PYR h.e. (Veronica persica [1]; VERPE 14-20 DAA 900 g a.c./ha): 40%
- PYR h.e. (Veronica persica [1]; VERPE 24-31 DAA 300 g a.c./ha): 10%
- PYR h.e. (Veronica persica [1]; VERPE 24-31 DAA 600 g a.c./ha): 0%
- PYR h.e. (Veronica persica [1]; VERPE 24-31 DAA 900 g a.c./ha): 0%
- herbicidal effect (h.e.) (Xanthium spinosum): 5%
- herbicidal effect (h.e.) ([2]; g a.c./ha: PYR 450, MES 144, PYR + MES 450 + 144): 48%
- herbicidal effect (h.e.) [2, 6]: 48%
- herbicidal effect (h.e.) (Chenopodium album; g a.c./ha: PYR 450, TEM 38, PYR + TEM 450 + 38): 49%
- herbicidal effect (h.e.) (Chenopodium album; [6]): 35%
- herbicidal effect (h.e.) (Sinapis arvensis): 57%
- herbicidal effect (h.e.) (Bassia scoparia): 66%
- herbicidal effect (h.e.) (Veronica persica [3]; [7]): 0%
- herbicidal effect (h.e.) (Veronica persica [3]; [8]): 8%
- herbicidal effect (h.e.) (Veronica persica [3]; [9]): 10%
- herbicidal effect (h.e.) (Veronica persica [3]; [10]): 10%
- herbicidal effect (h.e.) (Veronica persica [3]; [11]): 15%
- herbicidal effect (h.e.) (Veronica persica [3]; [12]): 10%
- herbicidal effect (h.e.) (Veronica persica [3]; [13]): 50%
- herbicidal effect (h.e.) (Matricaria chamomilla [4]; [7]): 0%
- herbicidal effect (h.e.) (Matricaria chamomilla [4]; [8]): 0%
- herbicidal effect (h.e.) (Matricaria chamomilla [4]; [9]): 0%
- herbicidal effect (h.e.) (Matricaria chamomilla [4]; [10]): 0%
- herbicidal effect (h.e.) (Matricaria chamomilla [4]; [11]): 0%
- herbicidal effect (h.e.) (Matricaria chamomilla [4]; [12]): 0%
- herbicidal effect (h.e.) (Matricaria chamomilla [4]; [13]): 0%
- herbicidal effect (h.e.) (Lamium amplexicaule; [7]): 0%
- herbicidal effect (h.e.) (Lamium amplexicaule; [10]): 5%
- herbicidal effect (h.e.) (Lamium amplexicaule; [13]): 10%
- herbicidal effect (h.e.) (Setaria verticillata; [7]): 0%
- herbicidal effect (h.e.) (Setaria verticillata; [8]): 0%
- herbicidal effect (h.e.) (Setaria verticillata; [9]): 10%
- herbicidal effect (h.e.) (Setaria verticillata; [10]): 0%
- herbicidal effect (h.e.) (Setaria verticillata; [11]): 7%
- herbicidal effect (h.e.) (Setaria verticillata; [12]): 10%
- herbicidal effect (h.e.) (Setaria verticillata; [13]): 0%
- PYR h.e. (Erodium ciconium; EROCC 14-20 DAA 300 g a.c./ha): 89%
- PYR h.e. (Erodium ciconium; EROCC 14-20 DAA 600 g a.c./ha): 96%
- PYR h.e. (Matricaria chamomilla [5]; MATCH 14-20 DAA 300 g a.c./ha): 25%
- PYR h.e. (Matricaria chamomilla [5]; MATCH 14-20 DAA 600 g a.c./ha): 45%
- PYR h.e. (Matricaria chamomilla [5]; MATCH 14-20 DAA 900 g a.c./ha): 61%
- PYR h.e. (Matricaria chamomilla [5]; MATCH 24-31 DAA 300 g a.c./ha): 5%
- PYR h.e. (Matricaria chamomilla [5]; MATCH 24-31 DAA 600 g a.c./ha): 26%
- PYR h.e. (Matricaria chamomilla [5]; MATCH 24-31 DAA 900 g a.c./ha): 39%
- PYR h.e. (Polygonum aviculare; POLAV 14-20 DAA 300 g a.c./ha): 18%
- PYR h.e. (Polygonum aviculare; POLAV 24-31 DAA 300 g a.c./ha): 17%
- PYR h.e. (Setaria viridis; SETVI 14-20 DAA 300 g a.c./ha): 10%
- PYR h.e. (Setaria viridis; SETVI 14-20 DAA 600 g a.c./ha): 20%
- PYR h.e. (Setaria viridis; SETVI 14-20 DAA 900 g a.c./ha): 25%
- PYR h.e. (Setaria viridis; SETVI 24-31 DAA 300 g a.c./ha): 0%
- PYR h.e. (Setaria viridis; SETVI 24-31 DAA 600 g a.c./ha): 0%
- PYR h.e. (Setaria viridis; SETVI 24-31 DAA 900 g a.c./ha): 0%
